{"source": "patent US10196393B2", "about": "“JAK inhibitors containing a 4-membered heterocyclic amide” (THERAVANCE BIOPHARMA R&D IP, LLC, priority 2017, dated 2019)", "key": {"[1]": {"target": "JAK1 (Homo sapiens (Human), UniProt P23458)", "sequence (P23458 whole entry)": "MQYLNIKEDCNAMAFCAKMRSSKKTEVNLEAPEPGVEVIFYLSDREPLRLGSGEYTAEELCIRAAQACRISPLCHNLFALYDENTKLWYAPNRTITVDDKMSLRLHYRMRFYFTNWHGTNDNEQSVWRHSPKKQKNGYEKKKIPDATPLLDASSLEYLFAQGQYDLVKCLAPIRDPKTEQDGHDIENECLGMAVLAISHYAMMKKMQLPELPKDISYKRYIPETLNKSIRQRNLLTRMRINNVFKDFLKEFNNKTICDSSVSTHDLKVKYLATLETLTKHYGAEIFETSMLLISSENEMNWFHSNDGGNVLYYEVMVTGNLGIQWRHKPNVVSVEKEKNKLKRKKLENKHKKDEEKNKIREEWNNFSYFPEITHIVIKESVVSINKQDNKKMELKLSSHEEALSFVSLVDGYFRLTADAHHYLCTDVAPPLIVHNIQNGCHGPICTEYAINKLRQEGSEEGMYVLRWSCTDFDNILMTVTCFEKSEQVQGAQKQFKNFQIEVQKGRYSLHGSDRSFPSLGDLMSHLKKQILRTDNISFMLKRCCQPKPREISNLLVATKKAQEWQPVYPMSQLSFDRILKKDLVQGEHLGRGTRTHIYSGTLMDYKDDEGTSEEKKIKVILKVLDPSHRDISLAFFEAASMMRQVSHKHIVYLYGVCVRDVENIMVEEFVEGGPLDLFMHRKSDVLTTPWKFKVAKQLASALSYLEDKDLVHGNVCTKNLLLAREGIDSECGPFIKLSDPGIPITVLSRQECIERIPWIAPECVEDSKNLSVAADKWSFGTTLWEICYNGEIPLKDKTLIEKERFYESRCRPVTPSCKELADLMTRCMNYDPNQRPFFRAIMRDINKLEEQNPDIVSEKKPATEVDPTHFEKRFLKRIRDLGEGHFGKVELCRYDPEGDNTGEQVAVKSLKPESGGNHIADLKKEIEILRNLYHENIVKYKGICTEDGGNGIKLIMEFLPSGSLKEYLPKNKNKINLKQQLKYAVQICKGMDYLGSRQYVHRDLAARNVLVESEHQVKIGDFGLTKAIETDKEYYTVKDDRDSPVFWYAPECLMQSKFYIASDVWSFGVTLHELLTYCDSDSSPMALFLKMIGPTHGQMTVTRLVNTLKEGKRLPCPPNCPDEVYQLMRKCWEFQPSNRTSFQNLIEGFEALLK", "test": "Biochemical JAK kinase assay (LanthaScreen), JAK1", "details": "converted from pIC50 with Cheng-Prusoff equation", "experimental": "(§1) Assay 1: Biochemical JAK Kinase Assays\n(§2) A panel of four LanthaScreen JAK biochemical assays (JAK1, 2, 3 and Tyk2) were carried in a common kinase reaction buffer (50 mM HEPES, pH 7.5, 0.01% Brij-35, 10 mM MgCl2, and 1 mM EGTA). Recombinant GST-tagged JAK enzymes and a GFP-tagged STAT1 peptide substrate were obtained from Life Technologies.\n(§3) Serially diluted compounds were pre-incubated with each of the four JAK enzymes and the substrate in white 384-well microplates (Corning) at ambient temperature for 1 h. ATP was subsequently added to initiate the kinase reactions in 10 μL total volume, with 1% DMSO. […] The plates were allowed to incubate at ambient temperature for 1 h before being read on the EnVision reader (Perkin Elmer).\n(§4) For dose-response analysis, percent inhibition data were plotted vs. compound concentrations, and IC50 values were determined from a 4-parameter robust fit model with the Prism software (GraphPad Software). Results were expressed as pIC50 (negative logarithm of IC50) and subsequently converted to pKi (negative logarithm of dissociation constant, Ki) using the Cheng-Prusoff equation."}, "[2]": {"target": "JAK3 (Homo sapiens (Human), UniProt P52333)", "sequence (P52333 whole entry)": "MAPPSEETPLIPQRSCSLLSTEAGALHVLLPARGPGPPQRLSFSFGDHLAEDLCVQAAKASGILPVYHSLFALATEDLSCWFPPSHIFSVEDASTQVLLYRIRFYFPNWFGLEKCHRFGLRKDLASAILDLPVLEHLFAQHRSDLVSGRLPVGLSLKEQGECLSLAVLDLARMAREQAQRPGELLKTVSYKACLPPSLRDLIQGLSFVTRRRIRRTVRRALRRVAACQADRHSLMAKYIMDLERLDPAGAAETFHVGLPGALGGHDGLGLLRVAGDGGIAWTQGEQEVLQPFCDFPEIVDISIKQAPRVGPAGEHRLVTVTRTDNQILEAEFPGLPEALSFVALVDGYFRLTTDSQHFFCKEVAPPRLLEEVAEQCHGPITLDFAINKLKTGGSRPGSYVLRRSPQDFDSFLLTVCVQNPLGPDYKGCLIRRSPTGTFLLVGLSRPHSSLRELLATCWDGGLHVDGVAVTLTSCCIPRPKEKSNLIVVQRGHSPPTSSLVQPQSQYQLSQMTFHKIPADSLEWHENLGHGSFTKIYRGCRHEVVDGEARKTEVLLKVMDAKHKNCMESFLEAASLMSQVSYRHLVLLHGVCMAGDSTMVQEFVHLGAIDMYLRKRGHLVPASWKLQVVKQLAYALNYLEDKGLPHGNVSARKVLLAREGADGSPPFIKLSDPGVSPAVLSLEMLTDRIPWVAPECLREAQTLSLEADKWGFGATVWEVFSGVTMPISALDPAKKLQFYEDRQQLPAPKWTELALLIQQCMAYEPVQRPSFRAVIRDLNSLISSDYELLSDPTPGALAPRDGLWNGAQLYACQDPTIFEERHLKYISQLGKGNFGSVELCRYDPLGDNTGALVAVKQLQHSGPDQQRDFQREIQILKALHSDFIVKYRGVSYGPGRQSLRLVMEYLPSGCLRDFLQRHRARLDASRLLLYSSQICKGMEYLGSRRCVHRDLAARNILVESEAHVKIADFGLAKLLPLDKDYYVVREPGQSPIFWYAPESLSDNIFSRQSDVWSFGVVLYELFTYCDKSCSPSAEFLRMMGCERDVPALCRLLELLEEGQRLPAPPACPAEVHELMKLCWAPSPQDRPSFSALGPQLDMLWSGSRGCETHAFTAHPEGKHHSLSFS", "test": "Biochemical JAK kinase assay (LanthaScreen), JAK3", "details": "converted from pIC50 with Cheng-Prusoff equation", "experimental": "as §1, §2, §3, §4"}, "[3]": {"system": "IL-13 induced pSTAT6 induction in lung tissue", "test": "Murine model of IL-13 induced pSTAT6 induction in lung tissue", "format": "in vivo", "details": "mouse lung, 1 mg/mL 50 μL oral aspiration, IL-13 challenge 4 h after dose, lungs at 5 hours", "text": "Assay 4: Murine (Mouse) Model of IL-13 Induced pSTAT6 Induction in Lung Tissue\nIl-13 is an important cytokine underlying the pathophysiology of asthma (Kudlacz et al. Eur. J. Pharmacol, 2008, 582,154-161). IL-13 binds to cell surface receptors activating members of the Janus family of kinases (JAK) which then phosphorylate STAT6 and subsequently activates further transcription pathways. In the described model, a dose of IL-13 was delivered locally into the lungs of mice to induce the phosphorylation of STAT6 (pSTAT6) which is then measured as the endpoint.\nAdult balb/c mice from Harlan were used in the assay. On the day of study, animals were lightly anesthetized with isoflurane and administered either vehicle or test compound (1 mg/mL, 50 μL total volume over several breaths) via oral aspiration. Animals were placed in lateral recumbency post dose and monitored for full recovery from anesthesia before being returned to their home cage. Four hours later, animals were once again briefly anesthetized and challenged with either vehicle or IL-13 (0.03 μg total dose delivered, 50 μL total volume) via oral aspiration before being monitored for recovery from anesthesia and returned to their home cage. One hour after vehicle or IL-13 administration, lungs were collected for both pSTAT6 detection using an anti-pSTAT6 ELISA (rabbit mAb capture/coating antibody; mouse mAb detection/report antibody: anti-pSTAT6-pY641; secondary antibody: anti-mouse IgG-HRP) and analyzed for total drug concentration as described above in Assay 3.\nSelected compounds of the invention were tested in the assay. Activity in the model is evidenced by a decrease in the level of pSTAT6 present in the lungs of treated animals at 5 hours compared to the vehicle treated, IL-13 challenged control animals. The difference between the control animals which were vehicle-treated, IL-13 challenged and the control animals which were vehicle-treated, vehicle challenged dictated the 0% and 100% inhibitory effect, respectively, in any given experiment."}, "[4]": {"system": "Alternaria alternata-induced eosinophilic inflammation of the lung (BALF eosinophils)", "test": "Murine model of Alternaria alternata-induced eosinophilic inflammation of the lung", "format": "in vivo", "details": "mouse, oropharyngeal aspiration 0.03-1.0 mg/mL, BALF 48 h after challenge; maximum statistically significant inhibition", "text": "Assay 5: Murine Model of Alternaria alternata-Induced Eosinophilic Inflammation of the Lung\nAirway eosinophilia is a hallmark of human asthma. Alternaria alternata is a fungal aeroallergen that can exacerbate asthma in humans and induces eosinophilic inflammation in the lungs of mice (Havaux et al. Clin Exp Immunol. 2005 February; 139(2):179-88).\nSeven- to nine-week old male C57 mice from Taconic were used in the study. On the day of study, animals were lightly anesthetized with isoflurane and administered either vehicle or test compound (0.03-1.0 mg/mL, 50 μL total volume over several breaths) via oropharyngeal aspiration. Animals were placed in lateral recumbency post dose and monitored for full recovery from anesthesia before being returned to their home cage. One hour later, animals were once again briefly anesthetized and challenged with either vehicle or alternaria extract (200 ug total extract delivered, 50 μL total volume) via oropharyngeal aspiration before being monitored for recovery from anesthesia and returned to their home cage. Forty-eight hours after alternaria administration, bronchoalveolar lavage fluid (BALF) was collected and eosinophils were counted in the BALF using the Advia 120 Hematology System (Siemens). […]"}, "[5]": {"system": "IFNγ induced CXCL10 and CXCL9 secretion in EpiAirway tissue cultures", "test": "Inhibition of IFNγ induced chemokines CXCL9 and CXCL10 in human 3D airway cultures", "format": "cell-based", "details": "192 h, Day 8, ±STDV", "experimental": "Assay 7: Inhibition of IFNγ and IL-27 Induced Chemokines CXCL9 and CXCL10 in Human 3D Airway Cultures\nEpiAirway tissue cultures were obtained from Mattek (AIR-100). Cultures were derived from asthmatic donors. In a cell culture insert, human derived tracheal/bronchial epithelial cells were grown and differentiated on a porous membrane support, allowing an air-liquid interface with warmed culture medium below the cells and a gaseous test atmosphere above. Tissues were cultured in maintenance media (Mattek, AIR-100-MM) in a 37° C., 5% CO2 humidified incubator. Four donors were tested. On Day 0, tissue cultures were treated with test compounds at 10 μM, 1 μM and/or 0.1 μM. Compounds were diluted in dimethyl sulfoxide (DMSO, Sigma) to a final concentration of 0.1%. DMSO at 0.1% was used as a vehicle control. Test compounds were incubated with cultures for 1 hour at 37° C., 5% CO2, followed by the addition of pre-warmed media containing IFNγ (R&D Systems) or IL-27 (R&D Systems) at a final concentration at 100 ng/ml. Tissue cultures were maintained for 8 days. Media was replaced every 2 days with fresh media containing compounds and IFNγ or IL-27. On Day 8, tissue cultures and supernatants were collected for analysis. Supernatant samples were assayed for CXCL10 (IP-10) and CXCL9 (MIG) using luminex analysis (EMD Millipore). Data is expressed as % Inhibition +/−standard deviation (±STDV). Percent inhibition was determined by compound inhibitory potency against IFNγ or IL-27 induced CXCL10 or CXCL9 secretion compared to vehicle treated cells. Data is the average from 3 or 4 donors. […] The compound of example 2 was able to inhibit IFNγ induced CXCL9 secretion by 93%±13 (at 10 μM) and 24%±49 (at 1 μM) when compared to vehicle."}}, "note": "Like-named read-outs stand apart in the source and are kept apart here.", "data": [{"smiles": "CCc1cc(O)c(F)cc1-c1ccc2c(-c3nc4c([nH]3)CN(C(C)C)[C@H](C(=O)N3CC(N(C)C)C3)C4)n[nH]c2c1", "note": "[Example 2, (S)-(3-(dimethylamino)azetidin-1-yl)(2-(6-(2-ethyl-5-fluoro-4-hydroxyphenyl)-1H-indazol-3-yl)-5-isopropyl-4,5,6,7-tetrahydro-3H-imidazo[4,5-c]pyridin-6-yl)methanone]", "values": [{"measurement": "Ki", "setting": "[1]", "value": 0.04, "unit": "nM"}, {"measurement": "Ki", "setting": "[2]", "value": 0.1, "unit": "nM"}, {"measurement": "pSTAT6 inhibition Assay 4", "setting": "[3]", "value": "B (B represents between 40% and 60% inhibition)"}, {"measurement": "Percent Inhibition of Alternaria-induced BALF Eosinophils", "setting": "[4]", "value": 74, "unit": "%"}, {"measurement": "inhibition at 0.1 µM", "setting": "[5]; at 0.1 μM", "value": 6, "unit": "%"}, {"measurement": "inhibition at 1 µM", "setting": "[5]; at 1 μM", "value": 24, "unit": "%"}, {"measurement": "inhibition at 10 µM", "setting": "[5]; 3 or 4 donors, read-out: % inhibition of IFNγ induced CXCL10 secretion", "value": 101, "unit": "%"}, {"measurement": "inhibition at 10 µM", "setting": "[5]; read-out: % inhibition of IFNγ induced CXCL9 secretion", "value": 93, "unit": "%"}]}]}
